Laboratory results: patent publication US20160159805A1, “Heterocyclic sulfonylamino(thio)carbonyl-derivatives with nematicidal properties” (BAYER CROPSCIENCE AG, priority 2013, published 2016)

Tested on: Meloidogyne incognita
Test: Meloidogyne incognita test (MELGIN), sand, gall formation on salad seedlings after 14 days
Type: in vivo
Settings: application rate 20 ppm, 100% = no galls, 0% = galls equal to untreated control
Experimental: 1. Meloidogyne incognita—test (MELGIN) [table] To produce a suitable preparation of active compound, 1 part by weight of active compound is mixed with the stated amount of solvent, and the concentrate is diluted with water to the desired concentration. Vessels are filled with sand, a solution of the active ingredient, a suspension containing eggs and larvae of the southern root-knot nematode (Meloidogyne incognita) and salad seeds. The salad seeds germinate and the seedlings grow. Galls develop in the roots. After 14 days the nematicidal activity is determined on the basis of the percentage of gall formation. 100% means no galls were found; 0% means the number of galls found on the roots of the treated plants was equal to that in untreated control plants.

N#Cc1cnn(Cc2ccc(Cl)c(S(=O)(=O)NC(=O)c3cn4cc(C(F)(F)F)cc(Cl)c4n3)c2)c1 [Ia-14, 8-chloro-N-({2-chloro-5-[(4-cyano-1H-pyrazol-1-yl)methyl]phenyl}sulfonyl)-6-(trifluoromethyl)imidazo[1,2-a]pyridine-2-carboxamide]
nematicidal activity on the basis of the percentage of gall formation: 100%
